According to US20260315653A1, “ANTICOAGULANT COMPOSITIONS COMPRISING ANTI-PLATELET AND ANTI-INFLAMMATORY DRUGS AND METHODS AND DEVICES FOR THEIR USE” (Elixir Medical Corporation, priority 2023, published 2026):
Like-named read-outs stand apart in the source and are kept apart here.

Assays:
[1] = tested on: blood clotting (heparinized sheep blood); test: Net ACT initiated by platelet activation factor (PAF) and CaCl2 in heparinized sheep blood (Examples 6-11)
Experimental: In order to examine the potential synergistic effects between anti-inflammatory agents, direct factor Xa inhibitors, direct factor IIa inhibitors, antiplatelets (P2Y12 inhibitor and glycoprotein IIb/IIIa inhibitor, platelet activation factor and CaCl2 were utilized by measuring ACT. Heparinized sheep blood was used to preserve platelet function.
The activated clotting time (ACT) evaluation initiated by platelet activation factor (PAF) and calcium chloride (CaCl2) was performed in heparinized sheep blood and recorded employing the Hemochron® Response device. […] A target amount of drug solution was then added into the test tube. The test tube was gently swirled so that the blood and drug were well-mixed. […] The tube was gently shaken before being inserted into the Hemochron Response detector. The ACT read out was recorded and reported. The ACT of the control heparinized sheep blood in the absence of any drug as first measured to establish a baseline. […] Then ACT was measured in the presence of different concentrations of the drug measured. Selected drug combinations were then tested to evaluate for potential synergy in action between the drug combination. The net ACT (ACT minus blood control ACT) was utilized to visualize the synergistic effect. […] The figures are presented in ng/mg wherein the density of blood and tissue are approximately the same.

[2] = tested on: blood clotting (fresh pig blood); test: Activated clotting time (ACT) of EDTA or analogues in fresh pig blood (Example 12); details: for Increase in clotting time compared to control: control 154 sec; for blood coagulation compared to the blood control: EDTA 200 ng/mg, sodium salts 300 ng/mg
Experimental: The activated clotting time (ACT) evaluation of EDTA or analogues was performed in fresh pig blood and recorded employing the Hemochron® Response device.
(§1) The ACT measurements were made in fresh pig blood. 1.0 ml of fresh pig blood was added to a test tube containing an activator (Hemochron@Celite@ ACT tubes, Lot F8FTE026 from Accriva Diagnostics, Inc.). A target amount of drug solution was then added into the test tube. The test tube was gently swirled so that the blood and drug was well-mixed. 0.1 ml of 0.3M calcium chloride was then added. The tube was gently shaken before being inserted into the Hemochron Response detector. The ACT read out was recorded and reported. The ACT of the control blood in the absence of any drug as first determined to establish a baseline. Then ACT was determined in the presence of different concentrations of EDTA or analogues as a single component.

[3] = pH of 1 mg/ml EDTA or analogue in water or phosphate buffer; assay type: physicochemical; details: 1 mg/ml in 0.01 M pH 7.4 phosphate buffer, 21.8-22.3 ° C.
[4] = as above; assay type: physicochemical
Excerpt: Based on the pH of EDTA or analogues in water and in 0.1M phosphate buffered saline as show in Table 2, EDTA disodium salt or dipotassium salt has a pH close to neutral pH in human body (6.42-6.92), whereas EDTA tetrasodium or trisodium has a very basic pH (>8.0) in human body. EDTA disodium or dipotassium is preferred in the examples.

[5] = tested on: blood clotting (citrated sheep blood); test: Net activated clotting time (net ACT) in citrated sheep blood (Examples 3-5); parameters: key: seconds; measured ACT minus blood control ACT (165 s); details: single drug, blood control 165 seconds
Experimental: The activated clotting time (ACT) evaluation of anticoagulants was performed in calcium citrate sheep blood and recorded employing the Hemochron® Response device. The ACT measurements were made in citrated sheep blood. 1.9 ml of citrated sheep blood was added to a test tube containing an activator (Hemochron@Celite@ ACT tubes, Lot F8FTE026 from Accriva Diagnostics, Inc.). A target amount of drug solution was then added into the test tube. The test tube was gently swirled so that the blood and drug were well-mixed. 0.1 ml of 0.3M calcium chloride was then added. The tube was gently shaken before being inserted into the Hemochron Response detector. The ACT read out was recorded and reported. The ACT of the control blood in the absence of any drug as first determined to establish a baseline. Here the blood control measured is 165 seconds. Then ACT was determined in the presence of different concentrations of the drug as a single component. In the following study, the net ACT (measured ACT minus blood control ACT) was utilized to visualize the synergistic effect of direct factor Xa inhibitor (Rivaroxaban) and direct factor IIa inhibitor (Argatroban) drug combinations. The figures are presented in ng/mg wherein the density of blood and tissue are approximately the same.
Example 4 is the continuation of example 3, which employed the same method as in example 3. The only difference is that the direct factor Xa inhibitor Edoxaban is used in place of direct factor Xa inhibitor Rivaroxaban.
Example 5 is the continuation of example 3, which employed the same method as in example 3. The only difference is that the direct factor Xa inhibitor Betrixaban is used in place of direct factor Xa inhibitor Rivaroxaban.

porcine coronary artery = test: In vivo porcine coronary stent implantation: fibrin score and late lumen loss (Examples 25-26); details: Table 9, day 7
Experimental: The drug eluting stent systems containing different anticoagulants prepared as described in Example 11 were evaluated at 3 hours, 6 hours, 1 day, 3 days, 6 days, 7 days, or 28 days following implantation in a porcine coronary artery model.
The porcine model was chosen as this model has been used extensively for stent and angioplasty studies resulting in a large volume of data on the vascular response properties and its correlation to human vascular response (Schwartz et al, Circulation. 2002; 106:1867 1873). The animals were housed and cared for in accordance with the Guide for the Care and Use of Laboratory Animals as established by the National Research Council.
After induction of anesthesia, the left or right femoral artery was accessed using standard techniques and an arterial sheath was introduced and advanced into the artery. Vessel angiography was performed under fluoroscopic guidance, a 7 Fr. guide catheter was inserted through the sheath and advanced to the appropriate location where intracoronary nitroglycerin was administered. An appropriate implantation segment of coronary artery was randomly selected and a 0.014″ guidewire inserted. Quantitative Coronary Angiography (QCA) was performed to document the results. The appropriately size stent was advanced to the deployment site. The balloon was inflated at a steady rate to a pressure sufficient to achieve a balloon to artery ratio of approximately 1.1 to 1.0.
Follow up angiography was performed at the designated timepoint for each of the animals. Late lumen loss (LLL) can be expressed as: […]
The LLL is an indicator of the amount smooth muscle cell (SMC) proliferation or inhibition. It is used to measure efficacy between drugs for SMC proliferation inhibition. The smaller the LLL, the better the efficacy of the drug.
Stented portions of coronary arteries were embedded in methyl methacrylate (MMA), then divided into a target of at least three blocks of approximately similar lengths for histology evaluation. Quantitative histopathological evaluation of stented artery sections was then performed and scored as indicated. For Fibrin formation, scores ranged from 0 to 3, with a score of 0 indicating absent or rare minimal spotting around struts of the stent, a score of 1 indicating the presence of fibrin in small amounts localized only around the struts, a score of 2 indicating the moderately abundant or denser presence of fibrin around and extending beyond the struts, and a score of 3 indicating the presence of abundant and dense fibrin and/or bridging of the fibrin between the struts. The mean score was calculated and reported. The mean of each section was then averaged to provide a mean fibrin score per stent. The smaller the fibrin score, the better efficacy.

[6] = tested on: blood clotting (citrated sheep blood); test: Activated clotting time (ACT) of EDTA or other anti-coagulant compounds in citrated sheep blood (Example 13)
Experimental: The activated clotting time (ACT) evaluation of anticoagulants was performed in Calcium-reconstituted sheep blood and recorded employing the Hemochron® Response device.
as §1, with “citrated sheep” for “fresh pig”, “1.9” for “1.0”, “EDTA or other anti-coagulant compounds” for “drug”

[7] = 1 mg/ml in d-water, 21.8-22.0 ° C.
[8] = single drug, 0.05 ng/mg, PAF & CaCl2, blood control 235 seconds
[9] = 167 ng/mg, blood control 202 sec

Q: With `COc1cc2c(c(OC)c1OC)-c1ccc(OC)c(=O)cc1[C@@H](NC(C)=O)CC2` [Colchicine] as the compound, how does the “net ACT” value [1] read?
A: 41 s

Q: Which “Clotting time (ACT)” value ([2]; 75 ng/mg) does the source give for `O=C(O)CN(CCN(CC(=O)O)CC(=O)O)CC(=O)O` [EDTA, ethylenediaminetetraacetic acid] here?
A: 179 s

Q: And the “Increase in clotting time compared to control” value (“Increase in clotting time” for short) ([2]; 75 ng/mg)?
A: 25 s

Q: And the “Clotting time (ACT)” value ([2]; 100 ng/mg)?
A: 247 s

Q: And the “Increase in clotting time” value ([2]; 100 ng/mg)?
A: 93 s

Q: And the “Clotting time (ACT)” value ([2]; 150 ng/mg)?
A: 275 s

Q: What about the “Increase in clotting time” value ([2]; 150 ng/mg) of the same compound?
A: 121 s

Q: And the “Clotting time (ACT)” value ([2]; 200 ng/mg)?
A: >500 s

Q: And the “Increase in clotting time” value ([2]; 200 ng/mg)?
A: >346 s

Q: And the “blood coagulation compared to the blood control” value [2]?
A: significant delayed blood coagulation

Q: With `O=C(O)CN(CCN(CC(=O)O)CC(=O)O)CC(=O)O` [EDTA tri sodium] as the compound, how does the pH [3] read?
A: 7.77

Q: And the pH [4, 7]?
A: 9.21

Q: And the “pH” value ([4]; in water and phosphate buffered saline)?
A: > 8.0

Q: What does the source list for `O=C(O)C(S)C(S)C(=O)O` (stereo not drawn) [Dimercaptosuccinic acid (DMSA), Dimercaptosuccinic acid]?
A: Clotting time (ACT) ([2]; 200 ng/mg): 151 s; Increase in clotting time compared to control ([2]; 200 ng/mg): -3 s

Q: With `CCCCS(=O)(=O)N[C@@H](Cc1ccc(OCCCCC2CCNCC2)cc1)C(=O)O` [Tirofiban] as the compound, how does the “net ACT” value [1, 8] read?
A: 9 s

Q: Which pH ([3]; listed as EDTA disodium) does the source give for `O=C(O)CN(CCN(CC(=O)O)CC(=O)O)CC(=O)O` [EDTA•2Na•2H2O] here?
A: 6.92

Q: What about the pH ([4]; 1 mg/ml in d-water, 21.8-22.0 ° C., listed as EDTA disodium) of the same compound?
A: 6.42

Q: And the “pH” value ([4]; in water and phosphate buffered saline, listed as EDTA disodium salt)?
A: 6.42-6.92

Q: What about the “Clotting time (ACT)” value ([2]; 100 ng/mg) of the same compound?
A: 191 s

Q: What about the “Increase in clotting time” value ([2]; 100 ng/mg) of the same compound?
A: 37 s

Q: What about the “Clotting time (ACT)” value ([2]; 200 ng/mg) of the same compound?
A: 264 s

Q: And the “Increase in clotting time” value ([2]; 200 ng/mg)?
A: 110 s

Q: What about the “Clotting time (ACT)” value ([2]; 300 ng/mg) of the same compound?
A: 374 s

Q: And the “Increase in clotting time” value ([2]; 300 ng/mg)?
A: 220 s

Q: And the “blood coagulation compared to the blood control” value ([2]; listed as EDTA disodium salt)?
A: The same trend

Q: Which “net ACT” value ([5]; 0.3 ng/mg) does the source give for `COc1ccc(NC(=O)c2ccc(C(=N)N(C)C)cc2)c(C(=O)Nc2ccc(Cl)cn2)c1` [Betrixaban] here?
A: 21

Q: What does the source list for `O=C(O)CN(CCN(CC(=O)O)CC(=O)O)CC(=O)O` [EDTA dipotassium]?
A: pH [3]: 6.93; pH [4, 7]: 6.25; pH ([4]; in water and phosphate buffered saline, listed as dipotassium salt): 6.42-6.92

Q: Which “LLL / smooth muscle cell proliferation compared to bare metal control stents” value (porcine coronary artery) does the source give for Dalteparin here?
A: larger LLLs compared to control

Q: And the “inhibition of fibrin formation compared to bare metal control stents” value (porcine coronary artery)?
A: not effective at inhibiting fibrin formation

Q: With `CCCSc1nc(N[C@@H]2C[C@H]2c2ccc(F)c(F)c2)c2nnn([C@@H]3C[C@H](OCCO)[C@@H](O)[C@H]3O)c2n1` [Ticagrelor] as the compound, how does the “net ACT” value [1, 8] read?
A: 18 s

Q: Which “Clotting time (ACT)” value ([6]; 67 ng/mg) does the source give for `CCCCCCCCCCCCCC[N+](C)(C)Cc1ccccc1.[Cl-]` [Benzyldimethyltetradecyl-ammonium chloride] here?
A: 316 s

Q: What about the “Increase in clotting time” value ([6]; 67 ng/mg) of the same compound?
A: 114 s

Q: And the “Clotting time (ACT)” value ([6]; 100 ng/mg)?
A: 421 s

Q: And the “Increase in clotting time” value ([6]; 100 ng/mg)?
A: 219 s

Q: What about the “Clotting time (ACT)” value ([6]; 133 ng/mg) of the same compound?
A: 983 s

Q: What about the “Increase in clotting time” value ([6]; 133 ng/mg) of the same compound?
A: 781 s

Q: What about the “Clotting time (ACT)” value [6, 9] of the same compound?
A: 1370 s

Q: What about the “Increase in clotting time” value [6, 9] of the same compound?
A: 1168 s

Q: For `CN1CCc2nc(C(=O)N[C@@H]3C[C@@H](C(=O)N(C)C)CC[C@@H]3NC(=O)C(=O)Nc3ccc(Cl)cn3)sc2C1` [Edoxaban], which “net ACT” value ([5]; 0.15 ng/mg) is on record?
A: 42

Q: And the “net ACT” value ([5]; 0.3 ng/mg)?
A: 87

Q: With `CC(=O)OCOC(=O)CN(CCN(CC(=O)OCOC(C)=O)CC(=O)OCOC(C)=O)CC(=O)OCOC(C)=O` [EDTA tetra acetoxymethyl ester] as the compound, how does the “Clotting time (ACT)” value ([2]; 500 ng/mg) read?
A: 158 s

Q: And the “Increase in clotting time” value ([2]; 500 ng/mg)?
A: 4 s
